# Tested on: anterior ocular segment
# Assay: Test Example 7 (2)(c): ocular local toxicity, visual observation on the anterior ocular segment, 28 days instillation
# Assay type: in vivo, Japanese white rabbits
# Parameters: Cornea (opacity x area), numerical rating / Iris, numerical rating / Conjunctiva (A) redness of palpebral conjunctiva, numerical rating / Conjunctiva (B) edema of palpebral conjunctiva, numerical rating / Conjunctiva (C) redness of bulbar conjunctiva, numerical rating / Conjunctiva (D) nictitating membrane, numerical rating / Conjunctiva (E) discharge, numerical rating / Total numerical rating: scale not given here
# Method: (2) Ocular local toxicity test in rabbits of 1.0% and 0.5% ophthalmic solutions of amosulalol hydrochloride by consecutive instillation for 28 days:
# With 15 male Japanese white rabbits divided into 3 groups each consisting of 5 rabbits, 1.0% and 0.5% ophthalmic solutions of amosulalol hydrochloride as well as physiological saline as a control were applied in one drop (0.05 ml) per time to the right eye of each rabbit alone, four times a day at a regular interval of 2.5 hours, for 28 days consecutively with the left eye being left untreated.
# (c) Visual observation on the anterior ocular segment; Based on the below-described criteria for assessment of ocular injuries (Gendai no Rinsho (Present-Day Clinics) Vol. 4, No. 4, pp. 227-289, 1970), numerical rating was performed on 1.0% and 0.5% ophthalmic solutions of amosulalol hydrochloride before instillation as well as on the day (Day 1) of initiating the instillation and on the 2nd, 4th, 7th, 14th, 21st, 28th days after initiating the instillation but each time after completion of the instillation and on the morning of the last instillation (29th day). With reference to the results of numerical rating, a numerical rating of not less than 1 as determined on either of the items was understood to be judged "injurious to the eye" while numerical ratings of 0 and 0.5 were considered "not injurious to the eye".
# Criteria for assessment of ocular injuries:
# Tables 5 and 6 show the results of the visual observation on the anterior ocular section, being specified above under Item (c), as obtained with 1.0% and 0.5% ophthalmic solutions of amosulalol hydrochloride, respectively, wherein each value given represents a mean for 5 cases.
# In Tables 5 and 6, the numerical rating of cornea means the value obtained by multiplying a value in "(A) Degree of Opacity" by that of "(B) Area of opacity" in the above-described "Criteria for assessment of ocular injuries".
# [1] = 0.5% solution, before instillation, mean of 5
# [2] = 0.5% solution, day 1, mean of 5
# [3] = 0.5% solution, day 2, mean of 5
# [4] = 0.5% solution, day 4, mean of 5
# [5] = 0.5% solution, day 7, mean of 5
# [6] = 0.5% solution, day 14, mean of 5
# [7] = 0.5% solution, day 21, mean of 5
# [8] = 0.5% solution, day 28, mean of 5
# [9] = 0.5% solution, day 29, mean of 5
# [10] = 1.0% solution, before instillation, mean of 5
# [11] = 1.0% solution, day 1, mean of 5
# [12] = 1.0% solution, day 2, mean of 5
# [13] = 1.0% solution, day 4, mean of 5
# [14] = 1.0% solution, day 7, mean of 5
# [15] = 1.0% solution, day 14, mean of 5
# [16] = 1.0% solution, day 21, mean of 5
# [17] = 1.0% solution, day 28, mean of 5
# [18] = 1.0% solution, day 29, mean of 5
compound,measurement,setting,value
"COc1ccccc1OCCNCC(O)c1ccc(C)c(S(N)(=O)=O)c1.Cl (centres unmarked) [amosulalol hydrochloride, 5-[1-hydroxy-2-[2-(2-methoxyphenoxy)ethylamino]ethyl]-2-methylbenzenesulfonamide hydrochloride]","Conjunctiva (A) redness of palpebral conjunctiva, numerical rating",[1],0
same,"Conjunctiva (B) edema of palpebral conjunctiva, numerical rating",[1],0
same,"Conjunctiva (C) redness of bulbar conjunctiva, numerical rating",[1],0
same,"Conjunctiva (D) nictitating membrane, numerical rating",[1],0
same,"Conjunctiva (E) discharge, numerical rating",[1],0
same,"Cornea (opacity x area), numerical rating",[1],0
same,"Iris, numerical rating",[1],0
same,Total numerical rating,[1],0
same,"Conjunctiva (A) redness of palpebral conjunctiva, numerical rating",[2],0
same,"Conjunctiva (B) edema of palpebral conjunctiva, numerical rating",[2],0
same,"Conjunctiva (C) redness of bulbar conjunctiva, numerical rating",[2],0.4
same,"Conjunctiva (D) nictitating membrane, numerical rating",[2],0
same,"Conjunctiva (E) discharge, numerical rating",[2],0
same,"Cornea (opacity x area), numerical rating",[2],0
same,"Iris, numerical rating",[2],0
same,Total numerical rating,[2],0.4
same,"Conjunctiva (A) redness of palpebral conjunctiva, numerical rating",[3],0
same,"Conjunctiva (B) edema of palpebral conjunctiva, numerical rating",[3],0
same,"Conjunctiva (C) redness of bulbar conjunctiva, numerical rating",[3],0.4
same,"Conjunctiva (D) nictitating membrane, numerical rating",[3],0
same,"Conjunctiva (E) discharge, numerical rating",[3],0
same,"Cornea (opacity x area), numerical rating",[3],0
same,"Iris, numerical rating",[3],0
same,Total numerical rating,[3],0.4
same,"Conjunctiva (A) redness of palpebral conjunctiva, numerical rating",[4],0
same,"Conjunctiva (B) edema of palpebral conjunctiva, numerical rating",[4],0
same,"Conjunctiva (C) redness of bulbar conjunctiva, numerical rating",[4],0.2
same,"Conjunctiva (D) nictitating membrane, numerical rating",[4],0
same,"Conjunctiva (E) discharge, numerical rating",[4],0
same,"Cornea (opacity x area), numerical rating",[4],0
same,"Iris, numerical rating",[4],0
same,Total numerical rating,[4],0.2
same,"Conjunctiva (A) redness of palpebral conjunctiva, numerical rating",[5],0
same,"Conjunctiva (B) edema of palpebral conjunctiva, numerical rating",[5],0
same,"Conjunctiva (C) redness of bulbar conjunctiva, numerical rating",[5],0.2
same,"Conjunctiva (D) nictitating membrane, numerical rating",[5],0
same,"Conjunctiva (E) discharge, numerical rating",[5],0
same,"Cornea (opacity x area), numerical rating",[5],0
same,"Iris, numerical rating",[5],0
same,Total numerical rating,[5],0.2
same,"Conjunctiva (A) redness of palpebral conjunctiva, numerical rating",[6],0
same,"Conjunctiva (B) edema of palpebral conjunctiva, numerical rating",[6],0
same,"Conjunctiva (C) redness of bulbar conjunctiva, numerical rating",[6],0.2
same,"Conjunctiva (D) nictitating membrane, numerical rating",[6],0
same,"Conjunctiva (E) discharge, numerical rating",[6],0
same,"Cornea (opacity x area), numerical rating",[6],0
same,"Iris, numerical rating",[6],0
same,Total numerical rating,[6],0.2
same,"Conjunctiva (A) redness of palpebral conjunctiva, numerical rating",[7],0
same,"Conjunctiva (B) edema of palpebral conjunctiva, numerical rating",[7],0
same,"Conjunctiva (C) redness of bulbar conjunctiva, numerical rating",[7],0.1
same,"Conjunctiva (D) nictitating membrane, numerical rating",[7],0
same,"Conjunctiva (E) discharge, numerical rating",[7],0
same,"Cornea (opacity x area), numerical rating",[7],0
same,"Iris, numerical rating",[7],0
same,Total numerical rating,[7],0.1
same,"Conjunctiva (A) redness of palpebral conjunctiva, numerical rating",[8],0
same,"Conjunctiva (B) edema of palpebral conjunctiva, numerical rating",[8],0
same,"Conjunctiva (C) redness of bulbar conjunctiva, numerical rating",[8],0.1
same,"Conjunctiva (D) nictitating membrane, numerical rating",[8],0
same,"Conjunctiva (E) discharge, numerical rating",[8],0
same,"Cornea (opacity x area), numerical rating",[8],0
same,"Iris, numerical rating",[8],0
same,Total numerical rating,[8],0.1
same,"Conjunctiva (A) redness of palpebral conjunctiva, numerical rating",[9],0
same,"Conjunctiva (B) edema of palpebral conjunctiva, numerical rating",[9],0
same,"Conjunctiva (C) redness of bulbar conjunctiva, numerical rating",[9],0
same,"Conjunctiva (D) nictitating membrane, numerical rating",[9],0
same,"Conjunctiva (E) discharge, numerical rating",[9],0
same,"Cornea (opacity x area), numerical rating",[9],0
same,"Iris, numerical rating",[9],0
same,Total numerical rating,[9],0
same,visual observation of the anterior ocular segment,"1.0% and 0.5% ophthalmic solutions, 4 times a day, 28 days",no abnormality
same,"Conjunctiva (A) redness of palpebral conjunctiva, numerical rating",[10],0
same,"Conjunctiva (B) edema of palpebral conjunctiva, numerical rating",[10],0
same,"Conjunctiva (C) redness of bulbar conjunctiva, numerical rating",[10],0
same,"Conjunctiva (D) nictitating membrane, numerical rating",[10],0
same,"Conjunctiva (E) discharge, numerical rating",[10],0
same,"Cornea (opacity x area), numerical rating",[10],0
same,"Iris, numerical rating",[10],0
same,Total numerical rating,[10],0
same,"Conjunctiva (A) redness of palpebral conjunctiva, numerical rating",[11],0.2
same,"Conjunctiva (B) edema of palpebral conjunctiva, numerical rating",[11],0
same,"Conjunctiva (C) redness of bulbar conjunctiva, numerical rating",[11],0.5
same,"Conjunctiva (D) nictitating membrane, numerical rating",[11],0
same,"Conjunctiva (E) discharge, numerical rating",[11],0
same,"Cornea (opacity x area), numerical rating",[11],0
same,"Iris, numerical rating",[11],0
same,Total numerical rating,[11],0.7
same,"Conjunctiva (A) redness of palpebral conjunctiva, numerical rating",[12],0.2
same,"Conjunctiva (B) edema of palpebral conjunctiva, numerical rating",[12],0
same,"Conjunctiva (C) redness of bulbar conjunctiva, numerical rating",[12],0.5
same,"Conjunctiva (D) nictitating membrane, numerical rating",[12],0
same,"Conjunctiva (E) discharge, numerical rating",[12],0
same,"Cornea (opacity x area), numerical rating",[12],0
same,"Iris, numerical rating",[12],0
same,Total numerical rating,[12],0.7
same,"Conjunctiva (A) redness of palpebral conjunctiva, numerical rating",[13],0.1
same,"Conjunctiva (B) edema of palpebral conjunctiva, numerical rating",[13],0
same,"Conjunctiva (C) redness of bulbar conjunctiva, numerical rating",[13],0.5
same,"Conjunctiva (D) nictitating membrane, numerical rating",[13],0
same,"Conjunctiva (E) discharge, numerical rating",[13],0
same,"Cornea (opacity x area), numerical rating",[13],0
same,"Iris, numerical rating",[13],0
same,Total numerical rating,[13],0.6
same,"Conjunctiva (A) redness of palpebral conjunctiva, numerical rating",[14],0.1
same,"Conjunctiva (B) edema of palpebral conjunctiva, numerical rating",[14],0
same,"Conjunctiva (C) redness of bulbar conjunctiva, numerical rating",[14],0.3
same,"Conjunctiva (D) nictitating membrane, numerical rating",[14],0
same,"Conjunctiva (E) discharge, numerical rating",[14],0
same,"Cornea (opacity x area), numerical rating",[14],0
same,"Iris, numerical rating",[14],0
same,Total numerical rating,[14],0.4
same,"Conjunctiva (A) redness of palpebral conjunctiva, numerical rating",[15],0.1
same,"Conjunctiva (B) edema of palpebral conjunctiva, numerical rating",[15],0
same,"Conjunctiva (C) redness of bulbar conjunctiva, numerical rating",[15],0.3
same,"Conjunctiva (D) nictitating membrane, numerical rating",[15],0
same,"Conjunctiva (E) discharge, numerical rating",[15],0
same,"Cornea (opacity x area), numerical rating",[15],0
same,"Iris, numerical rating",[15],0
same,Total numerical rating,[15],0.4
same,"Conjunctiva (A) redness of palpebral conjunctiva, numerical rating",[16],0.1
same,"Conjunctiva (B) edema of palpebral conjunctiva, numerical rating",[16],0
same,"Conjunctiva (C) redness of bulbar conjunctiva, numerical rating",[16],0.3
same,"Conjunctiva (D) nictitating membrane, numerical rating",[16],0
same,"Conjunctiva (E) discharge, numerical rating",[16],0
same,"Cornea (opacity x area), numerical rating",[16],0
same,"Iris, numerical rating",[16],0
same,Total numerical rating,[16],0.4
same,"Conjunctiva (A) redness of palpebral conjunctiva, numerical rating",[17],0.1
same,"Conjunctiva (B) edema of palpebral conjunctiva, numerical rating",[17],0
same,"Conjunctiva (C) redness of bulbar conjunctiva, numerical rating",[17],0.3
same,"Conjunctiva (D) nictitating membrane, numerical rating",[17],0
same,"Conjunctiva (E) discharge, numerical rating",[17],0
same,"Cornea (opacity x area), numerical rating",[17],0
same,"Iris, numerical rating",[17],0
same,Total numerical rating,[17],0.4
same,"Conjunctiva (A) redness of palpebral conjunctiva, numerical rating",[18],0
same,"Conjunctiva (B) edema of palpebral conjunctiva, numerical rating",[18],0
same,"Conjunctiva (C) redness of bulbar conjunctiva, numerical rating",[18],0
same,"Conjunctiva (D) nictitating membrane, numerical rating",[18],0
same,"Conjunctiva (E) discharge, numerical rating",[18],0
same,"Cornea (opacity x area), numerical rating",[18],0
same,"Iris, numerical rating",[18],0
same,Total numerical rating,[18],0
same,side effects such as ocular irritation,ophthalmic solution,free from side effects such as ocular irritation
